{"source": "patent US20090253794A1", "about": "“Fibroblast Activator, Collagen Production Promoter, Collagen Contraction Promoter, Hyaluronic Acid Production Promoter, ATP Production Promoter, Melanin Formation Inhibitor, and Agent for External Application to the Skin” (priority 2005, published 2009)", "key": {"human skin fibroblasts": {"test_system": "human skin fibroblasts", "test": "type I collagen gel contractability after glucose modification (glycated collagen)", "assay_type": "cell-based", "conditions": "one week, negative control = 1", "procedure": "A collagen solution (collagen was used trade name I-AC, manufactured by KOUKEN Co., Ltd.) was prepared on ice according to the explanation insert attached to the product, and the collagen was gelled in 12 wells at 37° C. A glucose-6-phosphate solution was added to the final concentration of 100 mM, and the mixture was incubated at 37° C. for 7 days to allow glycation reaction. Unreacted glucose-6-phosphate was removed, 1×10^5 cells/ml of fibroblast was sown on the collagen gel, and cultured for 5 hr using a 0.25% FBS/DMEM medium. The medium was removed, and […] or 0.25% FBS/DMEM medium containing PBS as negative control was added. The gel was detached from the dish wall, and the level of contraction of the gelled collagen was examined. As a positive control, DMEM medium containing 10% FBS was used. The medium was changed every 2 days and, one week later, the medium was removed by suction. The diameter of the collagen gel was measured, the area was calculated, and the area ratio was compared to that of the negative control as 1."}, "[1]": {"test_system": "mouse B16 melanoma strain", "test": "melanin formation amount after L-DOPA incubation (absorbance 495 nm), cells of Example 7", "assay_type": "cell-based", "conditions": "FIG. 1; cells of Example 7 (0.1, 1.0, 10 mM); absorbance at 495 nm", "procedure": "To the cells recovered in Example 7 was added 100 μl of cell suspension (PBS buffer containing Triton X-100 at 0.1% (v/v)). After thorough suspending, the suspension was stood at 4° C. for 1 hr. Thereto was added 100 μl of 10 mM L-DOPA (manufactured by Nacalai Tesque), and the mixture was incubated at 37° C. for 1 hr. Thereafter, the absorbance at 495 nm was measured by a plate reader (multiscanplus MKII, manufactured by Japan Flow Laboratory), and the melanin formation amount was measured."}, "normal human fibroblasts": {"test_system": "normal human fibroblasts", "test": "hyaluronic acid production promoting effect and cell count", "assay_type": "cell-based", "conditions": "72 hr; for number of cells: negative control 5.4 × 10^5; for amount of hyaluronic acid produced: negative control = 100, n=3 average", "procedure": "The number of cells of normal human fibroblasts was adjusted to 5.0×10^4 cells/mL in Medium 106S medium containing 2% FBS, and plated on a 24 well plate by 1.0 mL. The cell was cultured under an atmosphere of 95% (V/V) air-5% (V/V) carbon dioxide gas at 37° C. for 24 hr, and then Medium 106S medium (free of FBS) containing various concentrations of conagenin was added. After further culture for 72 hr, the culture supernatant was collected, and the concentration of hyaluronic acid released into the medium was measured by an inhibitory method (hyaluronic acid measurement kit, manufactured by SEIKAGAKU CORPORATION) utilizing a hyaluronic acid-binding protein. The method of operation was as indicated in the attached explanation insert. The results obtained using PBS as a negative control instead of conagenin was taken as 100 and the amount ratio of hyaluronic acid in the medium was calculated."}, "B16 melanoma cells": {"test_system": "B16 melanoma cells", "test": "melanin formation suppression test, visual whitening and cell mass volume", "assay_type": "cell-based, mouse", "set-up": "key to level of whitening: whitening high→++; whitening moderate→+; somewhat whitened→+−; no whitening→−", "conditions": "5 days; for level of whitening: visual evaluation; for change in cell mass volume: visual, cytotoxicity index", "procedure": "A melanin formation suppression test was performed as follows using mouse melanoma cells. First, 2×10^4 B16 melanoma cells were plated in a 35 mm diameter dish containing Eagle's minimum nutrition medium (3 ml) supplemented with 10% (v/v) fetal bovine serum, and cultured in a carbon dioxide incubator adjusted to 5% (v/v) carbon dioxide gas at 37° C. for about 24 hr. Then, pure water or a sample dissolved in pure water was added thereto to a final concentration of 0.1 mM, 1.0 mM or 10 mM. As a positive control, kojic acid (manufactured by Sigma Ltd.) was added to the same concentration. The cells were cultured for 5 more days under the same conditions, treated with trypsin, and centrifuged to collect the cells in a 1.5 ml Eppendorf. The level of whitening of the cells was visually evaluated, and indicated: whitening high→++; whitening moderate→+; somewhat whitened→+−; no whitening→−. Simultaneously, changes in the cell mass volume was visually evaluated and used as a cytotoxicity index."}, "[2]": {"test_system": "normal human skin fibroblasts", "test": "ATP production promotion (ATP Lite luminescence)", "assay_type": "cell-based", "conditions": "for ATP amount (average ATP amount without addition of sample is 100): 48 hr, n = 4, mean ± standard deviation", "procedure": "The evaluation was performed according to the following procedure. Normal human skin fibroblasts (manufactured by KURABO INDUSTRIES LTD.) were plated on a 96 well microplate at 2.0×10^4 cells per well. As the medium for plating, commercially available Medium 106S (manufactured by KURABO INDUSTRIES LTD.) containing 2% FBS, heparin 10 μg/ml and hydrocortisone 1 μg/ml was used. After culture for 24 hr, the medium was changed to a medium supplemented with various concentrations of conagenin, and the cells were cultured for 48 hr.\nThen, the medium was removed from the 96 well microplate, and the amount of ATP synthesized in the cell was measured using a ATP measurement kit (ATP Lite, manufactured by PerkinElmer, Inc.). That is, the cells were washed with PBS(−), the cell membrane was lysed with a Lysis solution, a luminescence substrate was added, and the mixture was transferred to a black 96 well microplate (View Plate). The chemical luminescence was measured with a luminometer. The effect of the sample was evaluated using, as an index, the average ATP amount without addition of the sample as 100. For statistical processing, parametric multiple comparison (Dunnett Type) relative to control group without addition of the sample was performed, wherein a risk rate of less than 5% is indicated with *, a risk rate of less than 1% is indicated with ** and a risk rate of less than 0.1% is indicated with ***."}}, "note": "Marks after values point to notes of the source that are not given here.", "data": [{"smiles": "C[C@@H]([C@@H](C)O)[C@@H](O)C(=O)N[C@@](C)(CO)C(=O)O", "note": "[conagenin, (2S)—N-[(2R,3S,4R)2,4-dihydroxy-3-methyl-pentanoyl]-2-methylserine]", "values": [{"measurement": "collagen gel area ratio", "setting": "human skin fibroblasts; 1 μM", "result": 0.81}, {"measurement": "collagen gel area ratio", "setting": "human skin fibroblasts; 100 μM", "result": 0.64}, {"measurement": "collagen gel area ratio", "setting": "human skin fibroblasts; 5 mM", "result": 0.49}, {"measurement": "melanin formation amount", "setting": "[1]", "result": "suppresses melanin formation at a low concentration"}, {"measurement": "number of cells", "setting": "normal human fibroblasts; 1 μM", "result": "5.3 × 10^5"}, {"measurement": "amount of hyaluronic acid produced", "setting": "normal human fibroblasts; 1 μM", "result": 108}, {"measurement": "number of cells", "setting": "normal human fibroblasts; 10 μM", "result": "5.5 × 10^5"}, {"measurement": "amount of hyaluronic acid produced", "setting": "normal human fibroblasts; 10 μM", "result": 120}, {"measurement": "number of cells", "setting": "normal human fibroblasts; 100 μM", "result": "5.3 × 10^5"}, {"measurement": "amount of hyaluronic acid produced", "setting": "normal human fibroblasts; 100 μM", "result": 132}, {"measurement": "number of cells", "setting": "normal human fibroblasts; 1 mM", "result": "5.1 × 10^5"}, {"measurement": "amount of hyaluronic acid produced", "setting": "normal human fibroblasts; 1 mM", "result": 147}, {"measurement": "number of cells", "setting": "normal human fibroblasts; 5 mM", "result": "4.0 × 10^5"}, {"measurement": "amount of hyaluronic acid produced", "setting": "normal human fibroblasts; 5 mM", "result": 199}, {"measurement": "level of whitening", "setting": "B16 melanoma cells; 0.1 mM", "result": "+"}, {"measurement": "change in cell mass volume", "setting": "B16 melanoma cells; 0.1 mM", "result": "none"}, {"measurement": "level of whitening", "setting": "B16 melanoma cells; 1 mM", "result": "++"}, {"measurement": "change in cell mass volume", "setting": "B16 melanoma cells; 1 mM", "result": "none"}, {"measurement": "level of whitening", "setting": "B16 melanoma cells; 10 mM", "result": "++"}, {"measurement": "change in cell mass volume", "setting": "B16 melanoma cells; 10 mM", "result": "none"}, {"measurement": "ATP amount (average ATP amount without addition of sample is 100)", "setting": "[2]; 0.20 μM", "result": "120 ± 18"}, {"measurement": "ATP amount (average ATP amount without addition of sample is 100)", "setting": "[2]; 0.39 μM", "result": "146 ± 30***"}, {"measurement": "ATP amount (average ATP amount without addition of sample is 100)", "setting": "[2]; 0.78 μM", "result": "128 ± 8*"}, {"measurement": "ATP amount (average ATP amount without addition of sample is 100)", "setting": "[2]; 1.56 μM", "result": "133 ± 8**"}, {"measurement": "ATP amount (average ATP amount without addition of sample is 100)", "setting": "[2]; 3.13 μM", "result": "150 ± 20***"}, {"measurement": "ATP amount (average ATP amount without addition of sample is 100)", "setting": "[2]; 6.25 μM", "result": "155 ± 26***"}, {"measurement": "ATP amount (average ATP amount without addition of sample is 100)", "setting": "[2]; 12.5 μM", "result": "160 ± 7***"}, {"measurement": "ATP amount (average ATP amount without addition of sample is 100)", "setting": "[2]; 25 μM", "result": "153 ± 4***"}, {"measurement": "ATP amount (average ATP amount without addition of sample is 100)", "setting": "[2]; 50 μM", "result": "168 ± 13***"}, {"measurement": "ATP amount (average ATP amount without addition of sample is 100)", "setting": "[2]; 100 μM", "result": "164 ± 16***"}, {"measurement": "concentration at which a statistically significant ATP production promoting action was observed", "setting": "[2]; Dunnett comparison with the group without addition", "result": "not less than 0.39 μM"}]}]}
